# US7642239B2, “Inhibition of placenta growth factor (PLGF) mediated metastasis and/or angiogenesis” (Center for Molecular Medicine and Immunology, priority 2005, dated 2010)
# Marks after values point to notes of the source that are not given here.
# T1: PlGF (Homo sapiens, UniProt P49763)
# T1 construct: purchased R&D Systems
# T1 sequence (P49763 19-170 isoform P49763-3 limits assumed): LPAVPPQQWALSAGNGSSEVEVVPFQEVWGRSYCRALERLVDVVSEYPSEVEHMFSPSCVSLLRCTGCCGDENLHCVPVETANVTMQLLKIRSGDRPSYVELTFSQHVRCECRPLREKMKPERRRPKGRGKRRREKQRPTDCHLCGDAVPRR
# T2: VEGF165 (Homo sapiens, UniProt P15692)
# T2 construct: purchased R&D Systems
# T2 sequence (P15692 27-191 isoform P15692-4): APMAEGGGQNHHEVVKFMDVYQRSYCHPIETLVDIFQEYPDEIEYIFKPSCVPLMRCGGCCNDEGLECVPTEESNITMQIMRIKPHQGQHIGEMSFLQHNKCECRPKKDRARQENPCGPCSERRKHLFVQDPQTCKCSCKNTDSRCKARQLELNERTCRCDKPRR
# Key:
# MDA-MB-231 [1] = experiment: Wound-healing (motility) assay, MDA-MB-231; type: cell-based, human; conditions: for Migrating cells: 18-24 h; for inhibition (block) of PlGF-stimulated motility / migration: soluble Flt-1 2 nM, PD98059 50 μM, Wortmannin 5 nM
# Experimental: (§1) MCF-7, MDA-MB-23 1, and MDA-MB-468 breast tumor cell lines or HECs were seeded onto sterile glass coverslips in Petri dishes or six-well plates. When the cells were 70-80% confluent, the monolayers were scratched with a sterile plastic pipet tip.
# (§2) Inhibitor concentrations were 50 μM PD98059 (PD98) (mitogen activated protein kinase-kinase 1 [MEK1] inhibitor), 5 nM Wortmannin (phosphatidyl inositol 3 kinase [PI3K] inhibitor), or human recombinant soluble Flt-1 (sFlt-1) (R&D Systems). […] Cells were pre-incubated with PD98 and Wortmannin for 15-30 min before addition of PlGF. Stained (Wright-Giemsa) and mounted coverslips were examined microscopically. Five to ten 100× fields were evaluated by counting the number of cells separated from the wound edges and which appeared to be migrating toward the center of the wound. Results are reported as the average number of cells migrating into the wound/100× field. In some cases data from separate experiments were combined to accommodate inclusion of various treatments in the tables.
# (§3) Antibody concentration was 1 μg/ml. MEK1 inhibitor, PD98059 (PD98), 50 μM. PI3K inhibitor, Wortmannin, 5 nM. […] Values for antibody and inhibitor treatments were from separate experiments which included all relevant controls. […] UT denotes untreated controls. *P<0.01 (ANOVA) compared to UT; † P<0.02 (ANOVA) compared to PlGF only. ‡ P<0.001 (ANOVA) compared to PlGF only.
# PlGF = target: T1, PlGF; experiment: Free peptide binding ELISA (FLAG epitope probe), PlGF-coated wells; conditions: free peptide; BP3, BP4, BP3scr at up to 50 μM
# Experimental: (§4) Competition assays were done with 2.5 or 25 U/ml heparin (Sigma, St. Louis, Mo.). BP1, 3, 4, and a scrambled version of BP3 (scrBP3) were synthesized with a linker followed by the FLAG epitope ([…] SEQ ID NO:5) at the C-terminus. Thirty minutes after addition of the first reagent, the second reagent was added, followed by another 30 minute incubation. Peptide binding was assessed by probing for the FLAG epitope (Prickett et al., Biotechniques 7:580-9, 1989; Castrucci et al., J. Virol. 66:4647-53, 1992). Absorbance was read at 490 nm.
# VEGF165 = target: T2, VEGF165; experiment: Free peptide binding ELISA (FLAG epitope probe), VEGF-coated wells; conditions: ELISA-based binding assay
# Experimental: as §4
# [2] = target: T3, recombinant human Flt-1 fusion protein (Homo sapiens, UniProt P17948); experiment: Free peptide binding and competition ELISA, Flt-1-coated wells; conditions: ELISA-based binding assay
# T3 construct: purchased R & D Systems
# T3 sequence (P17948 with tags, fused parts or gaps limits assumed): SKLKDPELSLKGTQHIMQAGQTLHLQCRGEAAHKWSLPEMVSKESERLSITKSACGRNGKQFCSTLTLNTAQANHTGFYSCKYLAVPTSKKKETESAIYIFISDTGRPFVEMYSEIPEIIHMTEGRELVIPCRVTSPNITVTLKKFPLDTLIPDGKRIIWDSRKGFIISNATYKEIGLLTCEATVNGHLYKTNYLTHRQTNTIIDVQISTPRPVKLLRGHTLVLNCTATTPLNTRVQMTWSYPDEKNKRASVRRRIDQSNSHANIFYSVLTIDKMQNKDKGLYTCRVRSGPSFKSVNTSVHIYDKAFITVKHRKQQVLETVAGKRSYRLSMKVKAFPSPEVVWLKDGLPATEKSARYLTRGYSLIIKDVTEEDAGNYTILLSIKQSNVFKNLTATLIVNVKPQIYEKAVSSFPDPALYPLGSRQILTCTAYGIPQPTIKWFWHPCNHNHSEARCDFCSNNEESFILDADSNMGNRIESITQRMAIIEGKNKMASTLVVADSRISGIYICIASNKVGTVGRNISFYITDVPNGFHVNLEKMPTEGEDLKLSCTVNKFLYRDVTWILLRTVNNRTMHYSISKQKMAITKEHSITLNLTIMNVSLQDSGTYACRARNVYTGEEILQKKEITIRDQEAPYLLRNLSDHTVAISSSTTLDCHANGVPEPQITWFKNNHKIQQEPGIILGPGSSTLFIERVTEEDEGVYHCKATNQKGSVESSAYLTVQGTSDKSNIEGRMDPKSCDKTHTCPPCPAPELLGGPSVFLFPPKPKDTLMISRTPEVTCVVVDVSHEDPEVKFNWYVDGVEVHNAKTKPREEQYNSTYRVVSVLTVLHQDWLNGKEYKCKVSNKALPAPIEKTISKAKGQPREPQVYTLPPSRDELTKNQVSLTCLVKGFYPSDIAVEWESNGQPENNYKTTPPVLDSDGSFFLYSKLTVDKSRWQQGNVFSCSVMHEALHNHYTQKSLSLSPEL
# Experimental: as §4
# MDA-MB-468 = experiment: Wound-healing (motility) assay, MDA-MB-468; type: cell-based, human; conditions: for Migrating cells: 18-24 h
# Experimental: as §1, §2, §3
# MCF-7 = experiment: Wound-healing (motility) assay, MCF-7; type: cell-based, human; conditions: for Migrating cells: 18-24 h
# Experimental: as §1, §2, §3
# MDA-MB-231 [3] = experiment: Matrigel cell invasion assay, MDA-MB-231; type: cell-based, human; conditions: 24 h
# Experimental: Cellular invasion was determined by addition of 5×10^4cells to growth factor-reduced Matrigel invasion chambers (BD Biosciences Discovery Labware, Bedford, Mass.) (Taylor et al., 2003b; Passaniti et al., 1992, Lab Invest 67, 519-528). Additives to the Matrigel® plugs were pre-incubated together in a total volume of 100 μl PBS at RT for 10 min, after which each additive was added to the Matrigel. Growth factors (2.0 or 0.2 nM), peptide (2 μg/ml), or antibody (1 μg/ml) were added to cells in low serum (0.1% fetal bovine serum [FBS]) medium. Baseline and chemoattractant-based invasion (10% FBS) were included. The number of invading cells was determined by counting the number of cells on the bottom of the invasion chamber membrane after staining at 100× magnification after 24 h (MDA-MB-231) or 48 h (MCF-7, MDA-MB-468). The results of three to five separate experiments are presented.
# [4] = system: MDA-MB-231 s.c. xenograft; experiment: Subcutaneous MDA-MB-231 xenograft growth and lung metastasis; type: in vivo, nude mice; conditions: subsequent experiment, start at 0.07-0.08 cm^3; 200 μg i.p.; mock 0.25
# Experimental: The tissue-culture-grown human breast tumor cell line, MDA-MB-231, was implanted subcutaneously (s.c.) on the flanks of nude mice. When tumors were visible, the mice were weighed and the tumors measured. Treatment with peptides was begun when tumors averaged about 0.06-0.12 cm^3 in volume. Mice were treated with 200-μg peptide in PBS by i.p. injection at 3-4-day intervals for 4 weeks. Animals were weighed and the tumors measured at each treatment. In a second experiment, the control peptide, CPA, was included. Three days after the final treatment, tumors and lungs were harvested. Tumor burden of the lungs (from experiment 1) was determined by counting colonies (<20 cells), clusters (>20-100 cells), and nodules (>100 cells) seen in all the lung tissue on a total of 4 slides or sections for each mouse. Data are presented as the average number of each size of metastasis for each treatment group (3-4 mice/group). The total number of each was summed for each treatment group, and divided by the total number of mice in that group. The percent inhibition for metastasis was determined by the formula: % inhibition=(# mock-treated−# treated/# mock-treated)×100.
# To test for therapeutic activity of the peptide, BP1, mice were implanted with human breast cancer cells, MDA-MB-231, which produces lung metastases spontaneously when implanted as a subcutaneous tumor. When the tumors averaged 0.12 cm^3 in volume, either mock-treatment or therapy with BP1 was initiated at 200 μg, two times per week for 4 weeks. […] In a subsequent experiment, treatment was commenced when tumors were 0.07-0.08 cm^3. After 4 weeks of treatment, as described, the mean volume of the mock- and CPA-treated tumors was 0.25 and 0.33 cm^3, respectively, whereas BP1-treated tumors averaged 0.04 cm^3 (P<0.05 BP1 vs. mock- or CPA-treated tumors) (FIG. 3A).
# MDA-MB-231 mfp tumor = experiment: Orthotopic mammary fat pad (mfp) MDA-MB-231 model; type: in vivo, SCID mice
# Excerpt: MDA-MB-231, grown in tissue culture, was also implanted in the mammary fat pad (mfp) of SCID mice (3×10^6 cells, 4-5 mice/group). In this model, large pulmonary metastases are less likely to develop (Richert et al., Breast Cancer Res. 7:R819-27, 2005). Peptide treatment was commenced on day 5 after implantation, when small tumors were palpable in all mice (8 treatments). Three days after the final peptide treatment, tumors were removed and weighed. Lungs were harvested and examined microscopically for metastases, as described above.
# MDA-MB-468 xenografts = type: in vivo, mice; conditions: 200 μg/dose i.p., twice-weekly, after 4 weeks
# Experimental: FIG. 5. Treatment of mice bearing MDA-MB-468 xenografts with peptides BP1 or BP3. Mice were treated every 3-4 days with 200 ug BP as described in Methods. Tumor volume was measured 2×/week. *P<0.05 at days 10, 14, 17 and 24 (change in tumor volume (ANOVA)). FIG. 5A—tumors treated with binding peptide 1. FIG. 5B—tumors treated with binding peptide 3.
# Mice bearing MDA-MB-468 xenografts (average tumor volume: 0.19 cm^3) were treated with i.p. injections of individual peptides (200 μg/dose) (FIG. 5). After 4 weeks of twice-weekly treatment, tumor growth was inhibited by 49% and 58% in mice treated with BP1 (FIG. 5A) or BP3 (FIG. 5B), respectively. The effect of BP3 on tumor growth was apparent after 2 weeks of treatment (FIG. 5B), whereas the inhibitory effect of BP1 was evident after one week (FIG. 5A). The average changes in individual tumor volumes during treatment with BP1 were significant (P<0.05) at days 10, 14, 17 and 24 (FIG. 5A). Treatment with BP2 was ineffective; tumors continued to grow at almost the same rate as the mock-treated controls (results not shown). BP4 treatment produced a 20% inhibition of tumor growth (results not shown).
# [5] = PlGF 2 nM ± test agent, relative to PlGF-only value, unit assumed
# [6] = growth factor PlGF 2 nM ± test agent (Flt-1 2 nM, peptide 2 μM, antibody 1 μg/ml, PD98059 50 μM, Wortmannin 5 nM)
# [7] = VEGF 2 nM ± test agent, relative to VEGF-only value, unit assumed
# [8] = growth factor VEGF 2 nM ± test agent (peptide 2 μM, antibody 1 μg/ml)
# [9] = growth factor PlGF 2 nM ± test agent (Flt-1 2 nM, peptide 2 μM, antibody 1 μg/ml)
# [10] = growth factor VEGF 2 nM ± test agent
# [11] = PlGF 2 nM ± test agent, relative to PlGF-only value
molecule,measurement,setting,value
"COc1cccc(-c2cc(=O)c3ccccc3o2)c1N [PD98059, reference compound]",Relative activity,MDA-MB-231 [1]; [5],43%
same,Migrating cells,MDA-MB-231 [1]; [6],18.4 ± 8.0‡ cells/100× field
same,inhibition (block) of PlGF-stimulated motility / migration,MDA-MB-231 [1],68%
"COC[C@H]1OC(=O)c2coc3c2[C@@]1(C)C1=C(C3=O)[C@@H]2CCC(=O)[C@@]2(C)C[C@H]1OC(C)=O [Wortmannin, reference compound]",Relative activity,MDA-MB-231 [1]; [5],39%
same,Migrating cells,MDA-MB-231 [1]; [6],16.4 ± 5.8‡ cells/100× field
same,inhibition (block) of PlGF-stimulated motility / migration,MDA-MB-231 [1],72%
"CPA: control peptide derived by substituting A for the H, R and D residues in BP1 (SAAYALAIQLAASASSSSCV) [reference compound]",binding to PlGF (in words),PlGF,bound
same,binding to VEGF (in words),VEGF165,bound
same,attenuated affinity for Flt-1,[2],50%
same,Relative activity,MDA-MB-231 [1]; [7],121%
same,effect on PlGF-stimulated motility (in words),"MDA-MB-231 [1]; antibody 1 μg/ml, peptide 2 μM",had no effect
same,Migrating cells,MDA-MB-231 [1]; [6],39.8 ± 10.6 cells/100× field
same,Migrating cells,MDA-MB-231 [1]; [8],13.4 ± 4.5 cells/100× field
same,Relative activity,MDA-MB-468; [7],104%
same,Migrating cells,MDA-MB-468; [9],21.6 ± 6.1 cells/100× field
same,Migrating cells,MDA-MB-468; [10],14.6 ± 8.0 cells/100× field
same,Relative activity,MCF-7; [7],111%
same,Migrating cells,MCF-7; [10],19.4 ± 8.9 cells/100× field
same,"invading cells, PlGF plus peptide",MDA-MB-231 [3]; PlGF-stimulated invasion with added peptide,35±17.3 cells
same,mean tumor volume after 4 weeks of treatment,[4],0.33 cm^3
same,tumor weight,"MDA-MB-231 mfp tumor; 8 peptide treatments, mock-treated 0.423±0.089",0.416 ± 0.083 g
same,micrometastasis counts per mouse,"MDA-MB-231 mfp tumor; lung, mock-treated 3.4±1.9",2.8±1.3
QDDHLTTGR (listed as Homo sapiens) [BP2],tumor growth inhibition,MDA-MB-468 xenografts,ineffective
VEGF,Migrating cells,MDA-MB-231 [1]; [8],11.1 ± 1.8 cells/100× field
same,Migrating cells,MDA-MB-468; [10],14.0 ± 11.3 cells/100× field
same,Migrating cells,MCF-7; [10],12.7 ± 4.1 cells/100× field
same,invading cells,MDA-MB-231 [3]; VEGF 2.0 nM or 0.2 nM,10±8.0 cells
"Flt-1: human recombinant soluble Flt-1 (sFlt-1) (R&D Systems) (protein, left off: large carriers) SKLKDPELSLKGTQHIMQAGQTLHLQCRGEAAHKWSLPEMVSKESERLSITKSACGRNGKQFCSTLTLNTAQANHTGFYSCKYLAVPTSKKKETESAIYIFISDTGRPFVEMYSEIPEIIHMTEGRELVIPCRVTSPNITVTLKKFPLDTLIPDGKRIIWDSRKGFIISNATYKEIGLLTCEATVNGHLYKTNYLTHRQTNTIIDVQISTPRPVKLLRGHTLVLNCTATTPLNTRVQMTWSYPDEKNKRASVRRRIDQSNSHANIFYSVLTIDKMQNKDKGLYTCRVRSGPSFKSVNTSVHIYDKAFITVKHRKQQVLETVAGKRSYRLSMKVKAFPSPEVVWLKDGLPATEKSARYLTRGYSLIIKDVTEEDAGNYTILLSIKQSNVFKNLTATLIVNVKPQIYEKAVSSFPDPALYPLGSRQILTCTAYGIPQPTIKWFWHPCNHNHSEARCDFCSNNEESFILDADSNMGNRIESITQRMAIIEGKNKMASTLVVADSRISGIYICIASNKVGTVGRNISFYITDVPNGFHVNLEKMPTEGEDLKLSCTVNKFLYRDVTWILLRTVNNRTMHYSISKQKMAITKEHSITLNLTIMNVSLQDSGTYACRARNVYTGEEILQKKEITIRDQEAPYLLRNLSDHTVAISSSTTLDCHANGVPEPQITWFKNNHKIQQEPGIILGPGSSTLFIERVTEEDEGVYHCKATNQKGSVESSAYLTVQGTSDKSN",Relative activity,MDA-MB-231 [1]; [11],45
same,Migrating cells,MDA-MB-231 [1]; [6],19.1 ± 8.0† cells/100× field
same,inhibition (block) of PlGF-stimulated motility / migration,MDA-MB-231 [1],55%
same,Relative activity,MDA-MB-468; [11],53
same,Migrating cells,MDA-MB-468; [9],7.8 ± 5.9† cells/100× field
same,Relative activity,MCF-7; [11],47
same,Migrating cells,MCF-7; [9],10.4 ± 8.2† cells/100× field
same,block of the stimulatory effect of PlGF on motility,MCF-7; soluble Flt-1 2 nM,67%
